biological target: human APJ receptor (Homo sapiens (Human), UniProt P35414); assay: biochemical; type: biochemical; details: read-out: Activity hAPJ SPA EC50 IP
Method in brief: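 Membranes from CHO cells stably expressing cloned human APJ were incubated with WGA SPA beads in 20 mM HEPES pH 7.5, 5 mM MgCl2, 0.1% BSA, 200 mM NaCl and 3 μM GDP. Reaction started with 0.2 nM [35S]GTPγS ± ligands, 90 min at RT. EC50 obtained by non-linear regression as mean of independent experiments.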

Chain of human APJ receptor (P35414 whole entry): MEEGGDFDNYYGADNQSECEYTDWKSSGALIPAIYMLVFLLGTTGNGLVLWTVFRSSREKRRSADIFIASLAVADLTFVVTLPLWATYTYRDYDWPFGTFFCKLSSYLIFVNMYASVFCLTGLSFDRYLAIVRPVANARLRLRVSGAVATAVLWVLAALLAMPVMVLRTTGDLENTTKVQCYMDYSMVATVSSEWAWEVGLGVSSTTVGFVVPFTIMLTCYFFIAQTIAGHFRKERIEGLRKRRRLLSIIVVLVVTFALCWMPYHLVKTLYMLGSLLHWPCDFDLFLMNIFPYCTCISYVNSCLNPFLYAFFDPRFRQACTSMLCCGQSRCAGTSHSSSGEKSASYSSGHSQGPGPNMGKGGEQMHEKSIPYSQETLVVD

Compound | EC50 [nM]
COc1cccc(OC)c1-n1c(NS(=O)(=O)[C@H](C)[C@@H](OC)c2ncc(Cl)cn2)nnc1-c1cccc(C)n1 [Example 89.0, (1S,2R)-1-(5-chloropyrimidin-2-yl)-N-(4-(2,6-dimethoxyphenyl)-5-(6-methylpyridin-2-yl)-4H-1,2,4-triazol-3-yl)-1-methoxypropane-2-sulfonamide] | 11
COc1ncnc(OC)c1-n1c(NS(=O)(=O)[C@@H](C)[C@H](OC)c2ncc(C)cn2)nnc1-c1cccc(C)n1 [Example 90.0, (1R,2S)-N-(4-(4,6-dimethoxypyrimidin-5-yl)-5-(6-methylpyridin-2-yl)-4H-1,2,4-triazol-3-yl)-1-methoxy-1-(5-methylpyrimidin-2-yl)propane-2-sulfonamide] | 2.4
COc1cccc(-c2nnc(NS(=O)(=O)C(C)C)n2-c2c(OC)cccc2OC)n1 [Example 100.0, N-(4-(2,6-dimethoxyphenyl)-5-(6-methoxypyridin-2-yl)-4H-1,2,4-triazol-3-yl)propane-2-sulfonamide] | 110
COc1cc(-c2nnc(NS(=O)(=O)[C@@H](C)[C@H](OC)c3ncc(C)cn3)n2-c2c(OC)cccc2OC)ccn1 [Example 101.0, (1R,2S)-N-(4-(2,6-dimethoxyphenyl)-5-(2-methoxypyridin-4-yl)-4H-1,2,4-triazol-3-yl)-1-methoxy-1-(5-methylpyrimidin-2-yl)propane-2-sulfonamide] | 7
COc1cccc(OC)c1-n1c(NS(=O)(=O)[C@@H](C)[C@H](OC)c2ncc(C)cn2)nnc1-c1ccncc1 [Example 102.0, (1R,2S)-N-(4-(2,6-dimethoxyphenyl)-5-(pyridin-4-yl)-4H-1,2,4-triazol-3-yl)-1-methoxy-1-(5-methylpyrimidin-2-yl)propane-2-sulfonamide] | 18
COc1cccc(OC)c1-n1c(NS(=O)(=O)[C@@H](C)[C@H](OC)c2ncc(C)cn2)nnc1-c1cccc(C)n1 [Example 103.0, (1R,2S)-N-(4-(2,6-dimethoxyphenyl)-5-(6-methylpyridin-2-yl)-4H-1,2,4-triazol-3-yl)-1-methoxy-1-(5-methylpyrimidin-2-yl)propane-2-sulfonamide] | 0.51
COc1cccc(OC)c1-n1c(NS(=O)(=O)[C@@H](C)[C@H](OC)c2ncc(C)cn2)nnc1-c1ccnc(C)c1 [Example 104.0, (1R,2S)-N-(4-(2,6-dimethoxyphenyl)-5-(2-methylpyridin-4-yl)-4H-1,2,4-triazol-3-yl)-1-methoxy-1-(5-methylpyrimidin-2-yl)propane-2-sulfonamide] | 2.4
CCOc1cccc(-c2nnc(NS(=O)(=O)[C@@H](C)[C@H](C)c3ncc(F)cn3)n2-c2c(OC)cccc2OC)n1 [Example 161.0, (2S,3R)-N-(4-(2,6-dimethoxyphenyl)-5-(6-ethoxy-2-pyridinyl)-4H-1,2,4-triazol-3-yl)-3-(5-fluoro-2-pyrimidinyl)-2-butanesulfonamide] | 0.062
COc1cccc(OC)c1-n1c(NS(=O)(=O)[C@@H](C)[C@H](C)c2ncc(F)cn2)nnc1-c1cccc(=O)[nH]1 [Example 168.0, (2S,3R)-N-(4-(2,6-dimethoxyphenyl)-5-(6-oxo-1,6-dihydro-2-pyridinyl)-4H-1,2,4-triazol-3-yl)-3-(5-fluoro-2-pyrimidinyl)-2-butanesulfonamide] | 110
CCOc1cccc(-c2nnc(NS(=O)(=O)[C@@H](C)[C@H](OC)c3ncc(C)cn3)n2-c2c(OC)cccc2OC)n1 [Example 172.0, (1R,2S)-N-(4-(2,6-dimethoxyphenyl)-5-(6-ethoxypyridin-2-yl)-4H-1,2,4-triazol-3-yl)-1-methoxy-1-(5-methylpyrimidin-2-yl)propane-2-sulfonamide] | 0.065
CCc1cccc(-c2nnc(NS(=O)(=O)[C@@H](C)[C@H](OC)c3ncc(C)cn3)n2-c2c(OC)cccc2OC)n1 [Example 174.0, (1R,2S)-N-(4-(2,6-dimethoxyphenyl)-5-(6-ethylpyridin-2-yl)-4H-1,2,4-triazol-3-yl)-1-methoxy-1-(5-methylpyrimidin-2-yl)propane-2-sulfonamide] | 0.2
CCc1cccc(-c2nnc(NS(=O)(=O)[C@@H](C)[C@H](O)c3ncc(C)cn3)n2-c2c(OC)cccc2OC)n1 [Example 175.0, (1R,2S)-N-(4-(2,6-dimethoxyphenyl)-5-(6-ethylpyridin-2-yl)-4H-1,2,4-triazol-3-yl)-1-hydroxy-1-(5-methylpyrimidin-2-yl)propane-2-sulfonamide] | 0.39
CCc1cccc(-c2nnc(NS(=O)(=O)[C@@H](C)[C@H](C)c3ncc(C)cn3)n2-c2c(OC)cccc2OC)n1 [Example 176.0, (2S,3R)-N-(4-(2,6-dimethoxyphenyl)-5-(6-ethylpyridin-2-yl)-4H-1,2,4-triazol-3-yl)-3-(5-methylpyrimidin-2-yl)butane-2-sulfonamide] | 0.15
COc1cc(C)cc(-c2nnc(NS(=O)(=O)[C@@H](C)[C@H](C)c3ncc(F)cn3)n2-c2c(OC)cccc2OC)n1 [Example 177.0, (2S,3R)-N-(4-(2,6-dimethoxyphenyl)-5-(6-methoxy-4-methylpyridin-2-yl)-4H-1,2,4-triazol-3-yl)-3-(5-fluoropyrimidin-2-yl)butane-2-sulfonamide] | 0.12
COc1cc(C)cc(-c2nnc(NS(=O)(=O)[C@@H](C)[C@H](C)c3ncc(C)cn3)n2-c2c(OC)cccc2OC)n1 [Example 178.0, (2S,3R)-N-(4-(2,6-dimethoxyphenyl)-5-(6-methoxy-4-methylpyridin-2-yl)-4H-1,2,4-triazol-3-yl)-3-(5-methylpyrimidin-2-yl)butane-2-sulfonamide] | 0.12
COc1cc(C)cc(-c2nnc(NS(=O)(=O)[C@@H](C)[C@H](OC)c3ncc(C)cn3)n2-c2c(OC)cccc2OC)n1 [Example 179.0, (1R,2S)-N-(4-(2,6-dimethoxyphenyl)-5-(6-methoxy-4-methylpyridin-2-yl)-4H-1,2,4-triazol-3-yl)-1-methoxy-1-(5-methylpyrimidin-2-yl)propane-2-sulfonamide] | 4.8
CCOc1cccc(-c2nnc(NS(=O)(=O)[C@@H](C)[C@H](C)c3ncc(C)cn3)n2-c2c(OC)cccc2OC)n1 [Example 180.0, (2S,3R)-N-(4-(2,6-dimethoxyphenyl)-5-(6-ethoxypyridin-2-yl)-4H-1,2,4-triazol-3-yl)-3-(5-methylpyrimidin-2-yl)butane-2-sulfonamide] | 0.068
COc1cccc(OC)c1-n1c(NS(=O)(=O)CCc2ccc(F)cc2C#N)nnc1-c1cncc(Cl)c1 [Example 181.0, N-(5-(5-chloro-3-pyridinyl)-4-(2,6-dimethoxyphenyl)-4H-1,2,4-triazol-3-yl)-2-(2-cyano-4-fluorophenyl)ethanesulfonamide] | 12
COc1cccc(OC)c1-n1c(NS(=O)(=O)[C@@H](C)[C@H](C)c2ncc(F)cn2)nnc1-c1cccc(OCC(F)(F)F)n1 [Example 185.0, (2S,3R)-N-(4-(2,6-dimethoxyphenyl)-5-(6-(2,2,2-trifluoroethoxy)pyridin-2-yl)-4H-1,2,4-triazol-3-yl)-3-(5-fluoropyrimidin-2-yl)butane-2-sulfonamide] | 0.12
COc1cccc(OC)c1-n1c(NS(=O)(=O)[C@@H](C)[C@H](C)c2ncc(F)cn2)nnc1-c1cccc(OCCO)n1 [Example 186.0, (2S,3R)-N-(4-(2,6-dimethoxyphenyl)-5-(6-(2-hydroxyethoxy)pyridin-2-yl)-4H-1,2,4-triazol-3-yl)-3-(5-fluoropyrimidin-2-yl)butane-2-sulfonamide] | 0.12
COc1cccc(OC)c1-n1c(NS(=O)(=O)[C@@H](C)[C@H](OC)c2ncc(C)cn2)nnc1-c1cccc(OCC(F)(F)F)n1 [Example 187.0, (1R,2S)-N-(4-(2,6-dimethoxyphenyl)-5-(6-(2,2,2-trifluoroethoxy)pyridin-2-yl)-4H-1,2,4-triazol-3-yl)-1-methoxy-1-(5-methylpyrimidin-2-yl)propane-2-sulfonamide] | 0.14
COc1cccc(OC)c1-n1c(NS(=O)(=O)[C@@H](C)[C@H](OC)c2ncc(C)cn2)nnc1-c1cccc(OCCO)n1 [Example 188.0, (1R,2S)-N-(4-(2,6-dimethoxyphenyl)-5-(6-(2-hydroxyethoxy)pyridin-2-yl)-4H-1,2,4-triazol-3-yl)-1-methoxy-1-(5-methylpyrimidin-2-yl)propane-2-sulfonamide] | 0.96
COc1cccc(OC)c1-n1c(NS(=O)(=O)[C@@H](C)[C@H](C)c2ncc(F)cn2)nnc1-c1cccc(OCC(C)(C)O)n1 [Example 192.0, (2S,3R)-N-(4-(2,6-dimethoxyphenyl)-5-(6-(2-hydroxy-2-methylpropoxy)pyridin-2-yl)-4H-1,2,4-triazol-3-yl)-3-(5-fluoropyrimidin-2-yl)butane-2-sulfonamide] | 260
COc1cccc(OC)c1-n1c(NS(=O)(=O)[C@@H](C)[C@H](OC)c2ncc(C)cn2)nnc1-c1cccc(OCC(C)(C)O)n1 [Example 193.0, (1R,2S)-N-(4-(2,6-dimethoxyphenyl)-5-(6-(2-hydroxy-2-methylpropoxy)pyridin-2-yl)-4H-1,2,4-triazol-3-yl)-1-methoxy-1-(5-methylpyrimidin-2-yl)propane-2-sulfonamide] | 61
COc1cccc(OC)c1-n1c(NS(=O)(=O)[C@@H](C)[C@H](C)c2ncc(F)cn2)nnc1-c1cccc(OCC(O)(C(F)(F)F)C(F)(F)F)n1 [Example 194.0, (2S,3R)-N-(4-(2,6-dimethoxyphenyl)-5-(6-(3,3,3-trifluoro-2-hydroxy-2-(trifluoromethyl)propoxy)pyridin-2-yl)-4H-1,2,4-triazol-3-yl)-3-(5-fluoropyrimidin-2-yl)butane-2-sulfonamide] | 36
CNc1cccc(-c2nnc(NS(=O)(=O)[C@@H](C)[C@H](OC)c3ncc(C)cn3)n2-c2c(OC)cccc2OC)n1 [Example 195.0, (1R,2S)-N-(4-(2,6-dimethoxyphenyl)-5-(6-(methylamino)pyridin-2-yl)-4H-1,2,4-triazol-3-yl)-1-methoxy-1-(5-methylpyrimidin-2-yl)propane-2-sulfonamide] | 0.35

From US10058550B2, “Methods of treating heart failure” (priority 2015, dated 2018)
